Key:
Spodoptera litura = test: Insecticidal test on Spodoptera litura (cabbage leaves soaked); format: in vivo; conditions: 144 h, 500 ppm solution, 3rd-instar larvae, 6 days after, 25° C.
Experimental: (§1) Leaves of cabbage were soaked in the solutions for about 10 seconds. After the soaking, the leaves were dried in air and placed in dishes. In each dish, five 3rd-instar larvae of Spodoptera litura were released, and the dishes were covered with lids and placed in an incubator at 25° C. 6 Days after, dead insects in the dishes were counted, and the mortality was calculated by using the same equation as in Test Example 1. The test was carried out in duplicate.

Plutella xylostella [1] = test: Insecticidal test on Plutella xylostella (cabbage leaves soaked); format: in vivo; conditions: 144 h, 500 ppm solution, 3rd-instar larvae, 6 days after, 25° C.
Experimental: as §1, with “Plutella xylostella” for “Spodoptera litura”

Nilaparvata lugens [2] = test: Systemic insecticidal test on Nilaparvata lugens (rice seedling root dip); format: in vivo; conditions: 20 ppm solution, rice seedling roots dipped 7 days, 3rd-instar larvae, 6 days after release, 25° C.
Experimental: 7 Days after, the rice seedlings were picked and put in test tubes, and in each tube, five 3rd-instar larvae of Nilaparvata lugens were released, and the tubes were capped with sponge and placed in an incubator at 25° C. 6 Days after the release of the insects, dead insects were counted, and the mortality (%) (the number of dead insects÷the number of released insects×100) was calculated. The test was carried out in duplicate.

Rhipicephalus sanguineus = test: Test on the effect on Rhipicephalus sanguineus (thin film in glass container); format: in vivo; conditions: 96 h, application dose 10 μg/cm^2, protonymphs, 4 days after release, 25° C.
Experimental: (§2) 350 μl of the solutions were applied to the bottoms and the side walls of glass containers with an inner wall surface area of 35 cm^2, and acetone was volatilized to prepare thin films of the compounds on the inner walls of the glass containers. Since the inner wall surface area of each glass container was 35 cm^2, the application dose was 10 μg/cm^2.
(§3) To each glass container, five protonymphs (male and female) of Rhipiceohalus sanguineus were released, and the containers were covered with lids and placed in an incubator at 25° C. 4 Days after the release of the ticks, dead ticks were counted, and the mortality was calculated by using the same equation as in Test Example 1.

Ctenocephalides felis = test: Test on the effect on Ctenocephalides felis (thin film in glass container); format: in vivo; conditions: 96 h, application dose 10 μg/cm^2, adults, 4 days after release, 25° C.
Experimental: as §2
as §3, with “adults” for “protonymphs”, “Ctenocephalides felis” for “Rhipiceohalus sanguineus”, “fleas,” for “ticks,”, “fleas” for “ticks”

[3] = tested on: Frankliniella occidentalis; test: Insecticidal activity on Frankliniella occidentalis (kidney bean leaf spray); format: in vivo; conditions: 48 h, 500 ppm solution sprayed (2.5 mg/cm^2), larvae on kidney bean leaves, 2 days after
Experimental: In styrol cups having an inner diameter of 7 cm, wet filter paper was laid, kidney bean leaves cut into a 3 cm square were laid on the paper, and each leaf was inoculated with 20 larvae of Frankliniella occidentalis. […] 2.5 ml of the solutions were sprayed from a rotary spray tower into the styrol cups (2.5 mg/cm^2).
2 Days after, dead insects were counted, and insect damage on kidney bean leaves was examined. The mortality was calculated by using the same equation as in Test Example 1.
The insect damage degree was evaluated as follows. 1: 0 to 20% insect damage, 2: 20 to 50% insect damage, 3: 50 to 70% insect damage, and 4: 70% or higher insect damge. The test was carried out in duplicate.

Nilaparvata lugens [4] = test: Insecticidal test on Nilaparvata lugens (rice sheaths soaked); format: in vivo; conditions: 144 h, 500 ppm solution, 3rd-instar larvae, 6 days after, 25° C.
Experimental: Rice sheaths were soaked in the solutions for about 10 seconds. After the soaking, the rice sheaths were dried in air and put in test tubes. In each tube, five 3rd-instar larvae of Nilaparvata lugens were released, and the tubes were capped with sponge and placed in an incubator at 25° C. 6 Days after, dead insects in the test tubes were counted, and the mortality (%) (the number of dead insects÷the number of released insects×100) was calculated. The test was carried out in duplicate.

Plutella xylostella [5] = test: Soil irrigation test on Plutella xylostella; format: in vivo; conditions: 144 h, 500 ppm solution, 10 ml soil irrigation of cabbage seedlings, leaves picked 5 days after, 3rd-instar larvae, 6 days after
Experimental: The soil around the bases of cabbage seedlings (at the 2.5-leaf stage) planted in plastic cups was irrigated with 10 ml of the solutions. After the irrigation, the cabbage seedlings were placed in a greenhouse. 5 Days after the irrigation, leaves of cabbage were picked and placed in dishes. In each dish, five 3rd-instar larvae of Plutella xylostella were released, and the dishes were covered with lids and placed in an incubator at 25° C. 6 Days after, dead insects in the dishes were counted, and the mortality was calculated by using the same equation as in Test Example 1. The test was carried out in duplicate.

Myzus persicae = test: Insecticidal test on Myzus persicae (cabbage leaf spray); format: in vivo; conditions: 144 h, 500 ppm solution sprayed (2.5 mg/cm^2), apterous adults on cabbage leaves, 6 days after, 25° C.
Experimental: Wet absorbent cotton was laid on glass dishes having an inner diameter of 3 cm, and covered with leaves of cabbage cut into circles of the same diameter, and 4 apterous adults of Myzus persicae were released. […] The solutions were sprayed from a rotary spray tower (2.5 mg/cm^2), and the dishes were covered with lids and placed in an incubator at 25° C. 6 Days after, dead insects were counted, and the mortality was calculated by using the same equation as in Test Example 1. The test was carried out in duplicate.

melting point	SMILES	mortality at 500 ppm (Spodoptera litura)	mortality at 500 ppm (Plutella xylostella [1])	mortality at 20 ppm (Nilaparvata lugens [2])	mortality at 10 µg/cm2 (Rhipicephalus sanguineus)	mortality at 10 µg/cm2 (Ctenocephalides felis)	mortality at 500 ppm [3]	mortality at 500 ppm (Nilaparvata lugens [4])	pest or weed control at 500 ppm (Plutella xylostella [5])	mortality at 500 ppm (Myzus persicae)
	CCSc1c(-c2nc3cc(C(F)(F)F)cnc3n2C)sc2ccc(C(F)(F)F)cc12 [3-1-002b, 2-[3-(ethylthio)-5-(trifluoromethyl)benzo[b]thiophen-2-yl]-3-methyl-6-(trifluoromethyl)-3H-imidazo[4,5-b]pyridine]	≥ 90%	≥ 90%	≥ 90%	≥ 50%	≥ 50%				
	CCS(=O)(=O)c1c(-c2nc3cc(C(F)(F)F)cnc3n2C)nc2cc(C(F)(F)F)cnn12 [1-1-057a, 2-[3-(ethylsulfonyl)-7-(trifluoromethyl)imidazo[1,2-b]pyridazin-2-yl]-3-methyl-6-(trifluoromethyl)-3H-imidazo[4,5-b]pyridine]	≥ 90%	≥ 90%	≥ 90%	≥ 50%	≥ 50%	≥ 50%	≥ 90%	≥ 90%	≥ 90%
	CCS(=O)(=O)c1c(-c2nc3cc(C(F)(F)F)cnc3n2C)nc2cc(C(F)(F)F)ncn12 [1-1-055a, 2-[3-(ethylsulfonyl)-7-(trifluoromethyl)imidazo[1,2-c]pyrimidin-2-yl]-3-methyl-6-(trifluoromethyl)-3H-imidazo[4,5-b]pyridine]		≥ 90%		≥ 50%	≥ 50%				
	CCS(=O)(=O)c1c(-c2nc3cc(C(F)(F)F)cnc3n2C)nc2cc(C(F)(F)F)ccn12 [1-1-002a, 2-[3-(ethylsulfonyl)-7-(trifluoromethyl)imidazo[1,2-a]pyridin-2-yl]-3-methyl-6-(trifluoromethyl)-3H-imidazo[4,5-b]pyridine]	≥ 90%	≥ 90%	≥ 90%	≥ 50%	≥ 50%		≥ 90%	≥ 90%	≥ 90%
	CCSc1c(-c2nc3cc(C(F)(F)F)ncc3n2C)nc2cc(Cl)ccn12 [1-8-006b, 2-[7-chloro-3-(ethylthio)imidazo[1,2-a]pyridin-2-yl]-3-methyl-6-(trifluoromethyl)-3H-imidazo[4,5-c]pyridine]	≥ 90%	≥ 90%		≥ 50%	≥ 50%				
	CC[S+]([O-])c1c(-c2nc3cc(C(F)(F)F)cnc3n2C)nc2cc(C(F)(F)F)cnn12 (centres unmarked) [1-1-057c, 2-[3-(ethylsulfinyl)-7-(trifluoromethyl)imidazo[1,2-b]pyridazin-2-yl]-3-methyl-6-(trifluoromethyl)-3H-imidazo[4,5-b]pyridine]	≥ 90%	≥ 90%	≥ 90%	≥ 50%	≥ 50%	≥ 50%	≥ 90%		≥ 90%
	CCSc1c(-c2nc3cc(C(F)(F)F)cnc3n2C)n(C)c2ccc(C(F)(F)F)cc12 [3-1-001b, 2-[3-(ethylthio)-1-methyl-5-(trifluoromethyl)-1H-indol-2-yl]-3-methyl-6-(trifluoromethyl)-3H-imidazo[4,5-b]pyridine]		≥ 90%			≥ 50%	≥ 50%			
220 to 222 °C	CCSc1c(-c2nc3cc(C(F)(F)F)cnc3n2C)nc2cnc(C(F)(F)F)cn12 [1-1-029b, 2-[3-(ethylthio)-6-(trifluoromethyl)imidazo[1,2-a]pyrazin-2-yl]-3-methyl-6-(trifluoromethyl)-3H-imidazo[4,5-b]pyridine]									
	CCSc1c(-c2nc3cc(SC(F)(F)F)cnc3n2C)nc2cc(C(F)(F)F)ccn12 [1-1-027b, 2-[3-(ethylthio)-7-(trifluoromethyl)imidazo[1,2-a]pyridin-2-yl]-3-methyl-6-((trifluoromethyl)thio)-3H-imidazo[4,5-b]pyridine]	≥ 90%	≥ 90%		≥ 50%	≥ 50%				
	CCS(=O)(=O)c1c(-c2nc3cc(C(F)(F)F)cnc3n2C)n(C)c2ccc(C(F)(F)F)cc12 [3-1-001a, 2-[3-(ethylsulfonyl)-1-methyl-5-(trifluoromethyl)-1H-indol-2-yl]-3-methyl-6-(trifluoromethyl)-3H-imidazo[4,5-b]pyridine]	≥ 90%	≥ 90%			≥ 50%	≥ 50%			≥ 90%
	CCSc1c(-c2nc3cc(C(F)(F)F)cnc3n2C)nc2ncc(C(F)(F)F)cn12 [1-1-054b, 2-[3-(ethylthio)-6-(trifluoromethyl)imidazo[1,2-a]pyrimidin-2-yl]-3-methyl-6-(trifluoromethyl)-3H-imidazo[4,5-b]pyridine]					≥ 50%	≥ 50%			
	CCSc1c(-c2nc3cc(C(F)(F)F)cnc3n2C)nc2cc(C(F)(F)F)ncn12 [1-1-055b, 2-[3-(ethylthio)-7-(trifluoromethyl)imidazo[1,2-c]pyrimidin-2-yl]-3-methyl-6-(trifluoromethyl)-3H-imidazo[4,5-b]pyridine]						≥ 50%			
	CCS(=O)(=O)c1c(-c2nc3cc(C(F)(F)F)ncc3n2C)nc2cc(C(F)(F)F)ccn12 [1-8-005a, 2-[3-(ethylsulfonyl)-7-(trifluoromethyl)imidazo[1,2-a]pyridin-2-yl]-3-methyl-6-(trifluoromethyl)-3H-imidazo[4,5-c]pyridine]	≥ 90%	≥ 90%	≥ 90%	≥ 50%	≥ 50%		≥ 90%	≥ 90%	≥ 90%
	CCSc1c(-c2nc3cc(C(F)(F)F)cnc3n2C)nc2cc(C(F)(F)F)ccn12 [1-1-002b, 2-[3-(ethylthio)-7-(trifluoromethyl)imidazo[1,2-a]pyridin-2-yl]-3-methyl-6-(trifluoromethyl)-3H-imidazo[4,5-b]pyridine]	≥ 90%	≥ 90%			≥ 50%	≥ 50%			≥ 90%
	CCS(=O)(=O)c1c(-c2nc3cc(C(F)(F)F)cnc3n2C)nc2sc(C(F)(F)F)nn12 [2-1-002a, 5-(ethylsulfonyl)-6-[3-methyl-6-(trifluoromethyl)-3H-imidazo[4,5-b]pyridin-2-yl]-2-(trifluoromethyl)imidazo[2,1-b][1,3,4]thiadiazole]		≥ 90%	≥ 90%			≥ 50%		≥ 90%	≥ 90%

From US10882869B2, “Condensed heterocyclic compounds and pesticides” (NISSAN CHEMICAL CORPORATION, priority 2015, dated 2021)
